Reference: ChEMBL document CHEMBL1833925, “Synthesis and structure-activity relationship of 4-quinolone-3-carboxylic acid based inhibitors of glycogen synthase kinase-3β” (Bioorg Med Chem Lett, 2011)
Converted amounts (≈) assume the structure as drawn.

Assays:
Escherichia coli = assay: Antibacterial activity against Escherichia coli after 18 hrs by microdilution assay; type: functional
[1] = target: Glycogen synthase kinase-3 beta (Homo sapiens, UniProt P49841); assay: Inhibition of human recombinant full length GSK3-beta after 1 hrs by luminescence assay
Staphylococcus aureus = assay: Antibacterial activity against Staphylococcus aureus after 18 hrs by microdilution assay; type: functional

Sequence of Glycogen synthase kinase-3 beta (P49841 whole entry): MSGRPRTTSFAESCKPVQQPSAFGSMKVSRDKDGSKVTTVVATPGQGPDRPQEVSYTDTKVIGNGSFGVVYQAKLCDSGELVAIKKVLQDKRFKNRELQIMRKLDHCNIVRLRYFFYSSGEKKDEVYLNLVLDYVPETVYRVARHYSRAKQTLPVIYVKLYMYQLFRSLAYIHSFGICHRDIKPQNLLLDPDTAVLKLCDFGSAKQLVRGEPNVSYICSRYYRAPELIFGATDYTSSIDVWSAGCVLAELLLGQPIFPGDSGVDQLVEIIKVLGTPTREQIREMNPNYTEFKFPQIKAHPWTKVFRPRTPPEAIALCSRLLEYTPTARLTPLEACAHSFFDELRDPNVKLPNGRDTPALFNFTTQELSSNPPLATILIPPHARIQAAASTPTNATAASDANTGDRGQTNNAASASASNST

SMILES	MIC (Escherichia coli) [µM]	IC50 [1] [nM]	MIC (Staphylococcus aureus) [µM]
COc1c(NCCNc2cccc3ccccc23)c(F)cc2c(=O)c(C(=O)O)cn(C3CC3)c12	–	26000	–
Nc1c(F)c(NCCNc2ccccn2)c(F)c2c1c(=O)c(C(=O)O)cn2C1CC1	–	190	–
Nc1c(F)c(NCCc2ccccc2)c(F)c2c1c(=O)c(C(=O)O)cn2C1CC1	–	440	–
CC(C)Nc1c(F)c(N)c2c(=O)c(C(=O)O)cn(C3CC3)c2c1F	–	1200	–
CC1(C)Cn2cc(C(=O)O)c(=O)c3c(N)c(F)c(NCCNc4ccccn4)c(c32)O1	> 37	440	> 37
COc1c(NCCNc2ccccn2)c(F)c(N)c2c(=O)c(C(=O)O)cn(CCC(C)C)c12	> 28	16000	> 28
Nc1c(F)c(NC2CCCCC2)c(F)c2c1c(=O)c(C(=O)O)cn2C1CC1	–	600	–
COc1c(NCCNc2ccccn2)c(F)c(N)c2c(=O)c(C(=O)O)c[nH]c12	25 (≈ 9.68 µg/mL)	1000	25 (≈ 9.68 µg/mL)
Nc1ccc(CCNc2c(F)c(N)c3c(=O)c(C(=O)O)cn(C4CC4)c3c2F)cc1	–	900	–
Nc1c(F)c(NCCCCc2ccccc2)c(F)c2c1c(=O)c(C(=O)O)cn2C1CC1	–	290	–
CC1(C)COc2c(NCCNc3ccccn3)c(F)c(N)c3c(=O)c(C(=O)O)cn(c23)C1	> 7	160	> 7
COc1c(NCCNc2ccccn2)c(F)c(N)c2c(=O)c(C(=O)O)cn(C3CC3)c12	9 (≈ 3.85 µg/mL)	160	1 (≈ 0.427 µg/mL)
C[C@@H]1COc2c(NCCNc3ccccn3)c(F)c(N)c3c(=O)c(C(=O)O)cn1c23	> 243	560	243 (≈ 100 µg/mL)
COc1c(NCCNc2ccccn2)c(F)c(N)c2c(=O)c(C(=O)O)cn(C)c12	> 13	270	13 (≈ 5.22 µg/mL)
COc1c(NCCCc2ccccc2)c(F)cc2c(=O)c(C(=O)O)cn(C3CC3)c12	–	17000	–
COc1c(NCCNc2ccccn2)c(F)c(N)c2c(=O)c(C(=O)O)cn(C3CCCC3)c12	> 28	1500	7 (≈ 3.19 µg/mL)
Nc1c(F)c(NCCn2ccnc2)c(F)c2c1c(=O)c(C(=O)O)cn2C1CC1	–	3400	–
Nc1c(F)c(NCCc2c[nH]c3ccccc23)c(F)c2c1c(=O)c(C(=O)O)cn2C1CC1	–	660	–
Nc1c(F)c(NCCN2CCOCC2)c(F)c2c1c(=O)c(C(=O)O)cn2C1CC1	–	2100	–

Stronger by IC50 [1], values ahead:

MIC (Escherichia coli) [µM]	IC50 [1] [nM]	MIC (Staphylococcus aureus) [µM]	SMILES
–	110	–	CC(C)OCCCNc1c(F)c(N)c2c(=O)c(C(=O)O)cn(C3CC3)c2c1F
–	100	–	Nc1c(F)c(NCCc2ccncc2)c(F)c2c1c(=O)c(C(=O)O)cn2C1CC1
> 29	75	14 (≈ 6.18 µg/mL)	CC(C)[C@H]1COc2c(NCCNc3ccccn3)c(F)c(N)c3c(=O)c(C(=O)O)cn1c23
–	65	–	COc1c(NCCCc2ccccc2)c(F)c(N)c2c(=O)c(C(=O)O)cn(C3CC3)c12
> 36	57	> 36	Nc1c(F)c(NCCNc2ccccn2)c2c3c1c(=O)c(C(=O)O)cn3C1(CCC1)CO2
59 (≈ 25.2 µg/mL)	49	59 (≈ 25.2 µg/mL)	CC1(C)COc2c(NCCNc3ccccn3)c(F)c(N)c3c(=O)c(C(=O)O)cn1c23
–	47	–	Nc1c(F)c(NCCNc2cccc3ccccc23)c(F)c2c1c(=O)c(C(=O)O)cn2C1CC1
–	45	–	Nc1c(F)c(NCCCn2ccnc2)c(F)c2c1c(=O)c(C(=O)O)cn2C1CC1
–	45	–	Nc1c(F)c(NCCCc2ccccc2)c(F)c2c1c(=O)c(C(=O)O)cn2C1CC1
4 (≈ 1.65 µg/mL)	44	2 (≈ 0.827 µg/mL)	C[C@H]1COc2c(NCCNc3ccccn3)c(F)c(N)c3c(=O)c(C(=O)O)cn1c23
> 2	31	> 2	CC(C)[C@@H]1COc2c(NCCNc3ccccn3)c(F)c(N)c3c(=O)c(C(=O)O)cn1c23
–	31	–	COc1c(NCCNc2cccc3ccccc23)c(F)c(N)c2c(=O)c(C(=O)O)cn(C3CC3)c12
> 29	22	> 29	Nc1c(F)c(NCCNc2ccccn2)c(F)c2c1c(=O)c(C(=O)O)cn2C1CCCC1
0.8 (≈ 0.318 µg/mL)	13	0.2 (≈ 0.0795 µg/mL)	Nc1c(F)c(NCCNc2ccccn2)cc2c1c(=O)c(C(=O)O)cn2C1CC1
> 71	12	71 (≈ 32.2 µg/mL)	Nc1c(F)c(NCCNc2ccccn2)c2c3c1c(=O)c(C(=O)O)cn3C1(CCCC1)CO2
